Values quoted from earlier work as cited in patent US4707498A, “Fluorinated diaminoalkyne derivatives” (Merrell Dow Pharmaceuticals Inc., priority 1986, dated 1987).

Tested on: tumor
Settings: MGBG intravenously once or twice week

CC(C=NNC(=N)N)=NNC(=N)N [MGBG, methylglyoxal bis(guanylhydrazone)]
complete disappearance of the disease (number of treated patients) (65 treated patients): two of the 65 | regression of the tumor (patients in advanced stages of carcinoma, lymphoma, hepatoma, melanoma, leukemia or sarcoma): measurable regression of the tumor in many of the patients treated
